Experiments:
[1] = biological target: T1, panel of 442 kinases (Homo sapiens, UniProt O75716); format: binding; details: kinase STK16; compound concentration 10 µM
T1 construct: purchased KINOMEscan
Text: (§1) We assessed the selectivity of members of this scaffold using the KINOMEscan methodology across a near comprehensive panel of 442 kinases [[18,27]].

[2] = biological target: T2, panel of 442 kinases (Homo sapiens, UniProt Q99683); format: binding; details: Compound Concentration 10 µM
T2 construct: purchased KINOMEscan
T2 sequence (Q99683 1-1374): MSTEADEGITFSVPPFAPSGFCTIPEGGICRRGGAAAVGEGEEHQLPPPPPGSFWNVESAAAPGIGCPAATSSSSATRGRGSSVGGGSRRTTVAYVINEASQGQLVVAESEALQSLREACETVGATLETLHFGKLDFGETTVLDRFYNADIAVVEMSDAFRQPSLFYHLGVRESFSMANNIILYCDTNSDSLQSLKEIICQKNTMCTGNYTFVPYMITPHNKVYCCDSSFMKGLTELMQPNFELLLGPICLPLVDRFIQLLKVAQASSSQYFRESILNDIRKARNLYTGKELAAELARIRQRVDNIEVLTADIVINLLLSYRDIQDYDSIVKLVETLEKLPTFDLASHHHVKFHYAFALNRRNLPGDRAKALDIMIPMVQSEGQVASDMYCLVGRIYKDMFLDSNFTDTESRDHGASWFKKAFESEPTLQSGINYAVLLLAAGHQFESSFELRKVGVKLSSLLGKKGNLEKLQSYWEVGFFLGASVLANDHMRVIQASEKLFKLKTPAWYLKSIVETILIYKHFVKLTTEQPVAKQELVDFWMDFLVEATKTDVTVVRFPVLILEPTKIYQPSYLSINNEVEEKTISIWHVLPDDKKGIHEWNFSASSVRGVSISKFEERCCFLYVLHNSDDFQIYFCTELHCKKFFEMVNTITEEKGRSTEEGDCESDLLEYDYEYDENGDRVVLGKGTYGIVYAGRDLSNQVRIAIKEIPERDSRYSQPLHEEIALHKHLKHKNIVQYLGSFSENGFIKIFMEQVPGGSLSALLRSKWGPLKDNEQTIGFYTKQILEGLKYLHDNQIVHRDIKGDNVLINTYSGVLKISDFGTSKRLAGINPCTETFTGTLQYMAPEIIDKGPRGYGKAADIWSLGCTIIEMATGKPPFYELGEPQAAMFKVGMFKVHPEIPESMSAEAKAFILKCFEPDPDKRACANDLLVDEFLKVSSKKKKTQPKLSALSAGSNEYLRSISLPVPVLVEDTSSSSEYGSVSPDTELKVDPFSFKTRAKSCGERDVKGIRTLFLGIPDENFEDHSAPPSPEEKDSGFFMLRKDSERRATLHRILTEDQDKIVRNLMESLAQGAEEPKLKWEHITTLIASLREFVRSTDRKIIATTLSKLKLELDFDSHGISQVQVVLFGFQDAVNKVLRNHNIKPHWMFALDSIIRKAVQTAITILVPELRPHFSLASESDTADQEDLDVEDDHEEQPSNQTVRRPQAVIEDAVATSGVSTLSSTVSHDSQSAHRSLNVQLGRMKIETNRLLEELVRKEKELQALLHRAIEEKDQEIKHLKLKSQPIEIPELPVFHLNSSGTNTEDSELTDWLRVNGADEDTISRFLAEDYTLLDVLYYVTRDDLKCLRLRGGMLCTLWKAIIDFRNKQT
Text: as §1

T1 sequence (O75716 whole entry): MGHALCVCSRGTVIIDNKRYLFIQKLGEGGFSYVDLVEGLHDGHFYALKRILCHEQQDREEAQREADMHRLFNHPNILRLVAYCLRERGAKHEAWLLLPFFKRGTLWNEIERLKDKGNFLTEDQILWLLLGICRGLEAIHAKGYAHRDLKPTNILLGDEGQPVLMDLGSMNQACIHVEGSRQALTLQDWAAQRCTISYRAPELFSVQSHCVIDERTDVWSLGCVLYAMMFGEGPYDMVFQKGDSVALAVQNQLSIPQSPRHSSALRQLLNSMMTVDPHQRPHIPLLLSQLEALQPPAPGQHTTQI

Question: Which results are given for `COc1cc(C(=O)N2CCC(N3CCN(C)CC3)CC2)ccc1Nc1ncc2c(n1)N(C)c1ccccc1C(=O)N2C` [15 (LRRK2-IN-1)]?
Answer: % Ctrl, STK16 [1]: 62 % Ctrl; KINOMEscan: ASK1 [2]: 100

Question: `COc1cc(C(=O)N2CCC(N3CCN(C)CC3)CC2)ccc1Nc1ncc2c(n1)N1CCc3cccc(c31)C(=O)N2C` [Compound 24] was tested. Which “% Ctrl, STK16” value [1] did it give?
Answer: 50 % Ctrl

Question: Which results are given for `COc1cc(C(=O)N2CCC(N3CCN(C)CC3)CC2)ccc1Nc1ncc2c(n1)N(C1CCCC1)c1ccccc1C(=O)N2C` [Compound 25, 11-cyclopentyl-2-((2-methoxy-4-(4-(4-methylpiperazin-1-yl)piperidine-1-carbonyl)phenyl)amino)-5-methyl-5H-benzo[e]pyrimido[5,4-b][1,4]diazepin-6(11H)-one]?
Answer: % Ctrl, STK16 [1]: 75 % Ctrl; KINOMEscan: ASK1 [2]: 100

Question: With `CCOc1cc(C(=O)N2CCC(N3CCN(C)CC3)CC2)ccc1Nc1ncc2c(n1)N(C1CCCC1)c1ccccc1C(=O)N2C` [Compound 26] as the compound, how does the “% Ctrl, STK16” value [1] read?
Answer: 99 % Ctrl

Question: And the “KINOMEscan: ASK1” value [2]?
Answer: 100

— paper PMC3914206
